Assay results reported in patent publication US8343966B2, “Organic compounds” (Novartis AG, priority 2008, dated 2013).

Molecular target: T1, human ALK5 (ALK5 T204D kinase domain) (Homo sapiens, UniProt P36897, T204D)
T1 construct: The kinase domain of human ALK5 (amino acids 200-503); made in house; host or cells: insect cells (baculovirus)
T1 sequence (P36897 200-503 T204D): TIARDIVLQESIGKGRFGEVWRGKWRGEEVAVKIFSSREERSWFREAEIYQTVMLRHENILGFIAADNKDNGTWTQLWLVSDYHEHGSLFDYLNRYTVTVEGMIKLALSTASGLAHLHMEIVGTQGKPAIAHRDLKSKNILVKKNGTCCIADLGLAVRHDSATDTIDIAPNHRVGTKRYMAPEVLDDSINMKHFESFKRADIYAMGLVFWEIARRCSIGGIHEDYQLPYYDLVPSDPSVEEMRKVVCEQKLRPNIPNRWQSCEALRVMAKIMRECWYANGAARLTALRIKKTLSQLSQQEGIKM
Experiment: ALK5 kinase assay, [33P] phosphate incorporation into casein
Type: biochemical
Conditions: casein substrate, 1 μM unlabelled ATP
Method: The kinase activity of ALK5 is assessed by measuring radiolabelled phosphate [33P] incorporation in to the generic substrate, casein. The kinase domain of human ALK5 (amino acids 200-503) is fused to an N-terminal histidine tag. The kinase activity of ALK5 is rendered constitutive via point mutation at amino acid 204 (threonine to aspartate modification, ALK5 T204D) and the kinase construct is engineered to be expressed from a baculovirus expression construct in insect cells. The purified, recombinantly-expressed histidine-tagged ALK5 T204D protein is dissolved at 5.4 mg/ml in 50 mM Tris-HCl pH 8.0, 150 mM NaCl, 5 mM DTT. ALK5 T204D is dissolved to 2.5 μg/ml in assay buffer (Assay buffer: 20 mM Tris-HCl pH 7.4, 10 mM MgCl2, 2 mM MnCl2) on the day of use.
Test compounds and reference compounds are dissolved in assay buffer without DTT containing 5% (v/v) DMSO. Stock solutions of test and reference compounds are diluted in assay buffer with DTT (1.25 mM) containing 4.5% (v/v) DMSO. 10 μl of test or reference compound are added to the appropriate wells of 96 well U-bottomed plate. Total enzyme activity is determined by measuring ALK5 T204D activity in the absence of ALK5 kinase inhibitor reference compounds. Non-specific binding (NSB) is determined by measuring the activity of ALK5 T204D in the presence of ALK5 kinase inhibitor reference compounds. 10 μl of dephosphorylated casein stock solution (dephosphorylated casein is dissolved in ddH2O at 20 mg/ml) is added per well (200 μg/well final assay concentration). 20 μl of ALK5 T204D (2.5 μg/ml solution) is added per well (50 ng/well final assay concentration). The plates are left to incubate at room temperature for 10 minutes.
10 μl of ATP mix is added to the well to initiate the reaction (0.66 nM [^33P]ATP/1 μM unlabelled ATP/well final assay concentration). The ATP mix is prepared as follows, unlabelled ATP (3 mM) is dissolved in ddH2O and pH adjusted to 7.4. The stock concentration of [^33P]ATP is 10 μCi/μl. The appropriate volume of [^33P]ATP is added to unlabelled ATP solution such that the final assay concentration per well is 0.1 μCi. Following addition of the ATP mix, the plates are incubated at room temperature for 50 minutes. The kinase reaction is terminated by the addition of 50 μL Stop Buffer (20 mM Tris-HCl pH 7.4, 10 mM EDTA).
75 μl/well from the reaction plate is transferred to a Multiscreen-IP plate (MultiScreen-IP plates are prepared by added 50 μL of 70% (v/v) ethanol per well and incubated for 5 minutes at room temperature. The ethanol is removed by aspiration via a MultiScreen HTS Vacuum Manifold unit (Millipore, Cat no: MSVMHT500). The plates are washed twice by adding 200 μl/well ddH2O). The MultiScreen-IP plate is incubated at room temperature for 30 minutes to allowing binding of casein to the plate. The MultiScreen-IP plates are washed three times by adding 200 μl/well 100 mM phosphoric acid solution and the gasket is carefully removed from the back of the MultiScreen-IP plate and the plate dried in the oven for 30 minutes. The MultiScreen-IP plate is backsealed, 50 μL of Microscint™20 is added, then the plates are topsealed and radiolabelled casein detected and quantified on a TopCount™ plate-reader using the ^33P scintillation protocol.

Q: `Cc1cccc(-c2cc(-c3cncc(-c4ccc(CO)cc4)c3)cc(NC3CC3)n2)n1` [Example 2.69, [4-(6′-Cyclopropylamino-6-methyl-[2,2′;4′,3″]terpyridin-5″-yl)-phenyl]-methanol] was tested. Which IC50 did it give?
A: 28 nM

Q: Which IC50 does the source give for `CC(C)Nc1cc(-c2cncc(-c3ccc(CN4CCN(C(C)(C)C)CC4)cc3)c2)cc(-c2ccccn2)n1` [Example 2.134, {5″-[4-(4-tert-Butyl-piperazin-1-ylmethyl)-phenyl]-[2,2′;4′,3″]terpyridin-6′-yl}-isopropyl-amine] here?
A: 22 nM

Q: For `Cc1cccc(-c2cc(-c3cncc(-c4ccc(CN5CCN(C(C)C)CC5)cc4)c3)cc(N)n2)n1` [Example 2.71, 5″-[4-(4-Isopropyl-piperazin-1-ylmethyl)-phenyl]-6-methyl-[2,2′;4′,3″]terpyridin-6′-ylamine], which IC50 is on record?
A: 74 nM

Q: How did the IC50 turn out when `CNc1cc(-c2cncc(-c3cccc(CN4CCN(C)CC4)c3)c2)cc(-c2ccccn2)n1` [Example 2.23, Methyl-{5″-[3-(4-methyl-piperazin-1-ylmethyl)-phenyl]-[2,2′;4′,3″]terpyridin-6′-yl}-amine] was run?
A: 16 nM

Q: How did the IC50 turn out when `CC1CN(C(=O)c2ccc(-c3cncc(-c4cc(-c5ccccn5)nc(C(C)(C)O)c4)c3)cc2)CC(C)N1C` (stereo not drawn) [Example 2.87, {4-[6′-(1-Hydroxy-1-methyl-ethyl)-[2,2′;4′,3″]terpyridin-5″-yl]-phenyl}-(3,4,5-trimethyl-piperazin-1-yl)-methanone] was run?
A: 139 nM

Q: For `C[C@@H]1CN(Cc2ccc(-c3cncc(-c4cc(-c5ccccn5)nc(C(C)(C)O)c4)c3)cc2)CCN1` [Example 2.91, 2-{5″-[4-((R)-3-Methyl-piperazin-1-ylmethyl)-phenyl]-[2,2′;4′,3″]terpyridin-6′-yl}-propan-2-ol], which IC50 is on record?
A: 32 nM

Q: How did the IC50 turn out when `CNc1cc(-c2cncc(-c3ccc(CN4CCN(C)CC4)cc3)c2)cc(-c2ccccn2)n1` [Example 2.26, Methyl-{5″-[4-(4-methyl-piperazin-1-ylmethyl)-phenyl]-[2,2′;4′,3″]terpyridin-6′-yl}-amine] was run?
A: 12 nM

Q: For `CC(C)(C)N1CCN(Cc2ccc(-c3cncc(-c4cc(N)nc(-c5ccccn5)c4)c3)cc2)CC1` [Example 2.158, 5″-[4-(4-tert-Butyl-piperazin-1-ylmethyl)-phenyl]-[2,2′;4′,3″]terpyridin-6′-ylamine], which IC50 is on record?
A: 35 nM

Q: Which IC50 does the source give for `CNc1cc(-c2cncc(-c3cnn(C4CCNCC4)c3)c2)cc(-c2ccn(C)n2)n1` [Example 2.179, Methyl-[6′-(1-methyl-1H-pyrazol-3-yl)-5-(1-piperidin-4-yl-1H-pyrazol-4-yl)-[3,4′]bipyridinyl-2′-yl]-amine] here?
A: 5 nM

Q: With `CC(C)(O)c1cc(-c2cncc(-c3ccc(CN4CCNCC4)cc3)c2)cc(-c2ccccn2)n1` [Example 2.81, 2-[5″-(4-piperazin-1-ylmethyl-phenyl)-[2,2′;4′,3″]terpyridin-6′-yl]-propan-2-ol] as the molecule, how does the IC50 read?
A: 28 nM

Q: How did the IC50 turn out when `[2H]C([2H])([2H])N1CCN(Cc2ccc(-c3cncc(-c4cc(-c5ccccn5)nc(C(C)(C)O)c4)c3)cc2)CC1` [Example 2.85, 2-{5″-[4-(4-Methyl-d3-piperazin-1-ylmethyl)-phenyl]-[2,2′;4′,3″]terpyridin-6′-yl}-propan-2-ol] was run?
A: 74 nM

Q: With `CC(C)N1CCN(Cc2ccc(-c3cncc(-c4cc(-c5ccccn5)nc(C(C)(C)O)c4)c3)cc2)CC1` [Example 2.80, 2-(5″-[4-(4-Isopropyl-piperazin-1-ylmethyl)-phenyl]-[2,2′;4′,3″]terpyridin-6′-yl)-propan-2-ol] as the molecule, how does the IC50 read?
A: 39 nM

Q: How did the IC50 turn out when `CC(C)(O)c1cc(-c2cncc(-c3cnn(C4CCOCC4)c3)c2)cc(-c2ccccn2)n1` [Example 2.84, 2-{5″-[1-(Tetrahydro-pyran-4-yl)-1H-pyrazol-4-yl]-[2,2′;4′,3″]terpyridin-6′-yl}-propan-2-ol] was run?
A: 20 nM

Q: `CC1(C)CN(Cc2ccc(-c3cncc(-c4cc(-c5ccccn5)nc(C(C)(C)O)c4)c3)cc2)CCN1` [Example 2.92, 2{-5″-[4-(3,3-Dimethyl-piperazin-1-ylmethyl)-phenyl]-[2,2′;4′,3″]terpyridin-6′-yl}-propan-2-ol] was tested. Which IC50 did it give?
A: 35 nM

Q: `CC(C)(C)N1CCN(Cc2cccc(-c3cncc(-c4cc(NC5CC5)nc(-c5ccccn5)c4)c3)c2)CC1` [Example 2.119, {5″-[3-(4-tert-Butyl-piperazin-1-ylmethyl)-phenyl]-[2,2′;4′,3″]terpyridin-6′-yl}-cyclopropyl-amine] was tested. Which IC50 did it give?
A: 64 nM

Q: With `CNc1cc(-c2cncc(-c3ccc(N4CCN(C)CC4)cc3)c2)cc(-c2ccccn2)n1` [Example 2.2, Methyl-{5″-[4-(4-methyl-piperazin-1-yl)-phenyl]-[2,2′;4′,3″]terpyridin-6′-yl}-amine] as the molecule, how does the IC50 read?
A: 30 nM

Q: For `[2H]C([2H])([2H])Nc1cc(-c2cncc(-c3ccc(CN4CCN(C(C)C)CC4)cc3)c2)cc(-c2ccccn2)n1` [Example 2.100, {5″-[4-(4-Isopropyl-piperazin-1-ylmethyl)-phenyl]-[2,2′;4′,3″]terpyridin-6′-yl}-methyl-d3-amine], which IC50 is on record?
A: 11 nM

Q: How did the IC50 turn out when `CNc1cc(-c2cncc(-c3cccc(N4CCCC4)c3)c2)cc(-c2ccccn2)n1` [Example 2.12, Methyl-[5″-(3-pyrrolidin-1-yl-phenyl)-[2,2′;4′,3″]terpyridin-6′-yl]-amine] was run?
A: 209 nM

Q: For `CCNc1cc(-c2cncc(-c3cccc(CN4CCN(C(C)C)CC4)c3)c2)cc(-c2ccccn2)n1` [Example 2.114, Ethyl-{5″-[3-(4-isopropyl-piperazin-1-ylmethyl)-phenyl]-[2,2′;4′,3″]terpyridin-6′-yl}-amine], which IC50 is on record?
A: 42 nM

Q: How did the IC50 turn out when `Nc1cc(-c2cncc(-c3ccc(CN4CCNCC4)cc3)c2)cc(-c2ccccn2)n1` [Example 2.159, 5″-(4-piperazin-1-ylmethyl-phenyl)-[2,2′;4′,3″]terpyridin-6′-ylamine] was run?
A: 24 nM

Q: For `CC(C)N1CCC(n2cc(-c3cncc(-c4cc(-c5ccccn5)nc(C(C)(C)O)c4)c3)cn2)CC1` [Example 2.89], which IC50 is on record?
A: 17 nM

Q: How did the IC50 turn out when `CC(C)(O)c1cc(-c2cncc(-c3cnn(C4CCNCC4)c3)c2)cc(-c2ccccn2)n1` [Example 2.88, 2-[5″-(1-Piperidin-4-yl-1H-pyrazol-4-yl)-[2,2′;4′,3″]terpyridin-6′-yl]-propan-2-ol] was run?
A: 22 nM

Q: `CNc1cc(-c2cncc(-c3ccnc(OC)c3)c2)cc(-c2ccccn2)n1` [Example 2.17, (2′″-Methoxy-[2,2′;4′,3″;5″,4′″]quaterpyridin-6′-yl)-methyl-amine] was tested. Which IC50 did it give?
A: 236 nM

Q: For `Cc1ccc(-c2cc(-c3cccnc3)cc(NCCc3c[nH]c4ccccc34)n2)o1` [Example 1.3, [2-(1H-Indol-3-yl)-ethyl]-[6′-(5-methyl-furan-2-yl)-[3,4′]bipyridinyl-2′-yl]-amine], which IC50 is on record?
A: 23 nM

Q: `CNc1cc(-c2cncc(-c3ccc(CN4CCNCC4)cc3)c2)cc(-c2ccccn2)n1` [Example 2.172, Methyl-[5″-(4-piperazin-1-ylmethyl-phenyl)-[2,2′;4′,3″]terpyridin-6′-yl]-amine] was tested. Which IC50 did it give?
A: 10 nM

Q: With `[2H]C([2H])([2H])Nc1cc(-c2cncc(-c3cnn(C)c3)c2)cc(-c2ccccn2)n1` [Example 2.104, Methyl-d3-[5″-(1-methyl-1H-pyrazol-4-yl)-[2,2′;4′,3″]terpyridin-6′-yl]-amine] as the molecule, how does the IC50 read?
A: 13 nM

Q: How did the IC50 turn out when `CN(C)[C@@H]1CCN(Cc2ccc(-c3cncc(-c4cc(NC5CC5)nc(-c5ccccn5)c4)c3)cc2)C1` [Example 2.62, Cyclopropyl-{5″-[4-((R)-3-dimethylamino-pyrrolidin-1-ylmethyl)-phenyl]-[2,2′;4′,3″]terpyridin-6′-yl}-amine] was run?
A: 235 nM
